According to US20240131007A1, “METHODS AND COMPOSITIONS FOR PICORNAVIRUS ANTI-VIRAL AGENTS” (University of Connecticut, priority 2022, published 2024):
Entries after “also recorded” stand apart in the source; their conditions may differ. Read-outs that look alike come from different tables or passages of the source.

How the values were obtained:
[1] = NIAID secondary assay, Virus Yield Reduction, EV-68
EV-68 [2] = assay: as above; conditions: Enterovirus D, EV68, read-out: EC90 μM
EV-A71 Δ2C^116-329 [3] = target: T1, EV-A71 Δ2C^116-329 (Human enterovirus 71, UniProt Q66478); assay: biochemical; format: biochemical
T1 construct: EV-A71 Δ2C (amino acids 116-329) was designed with; made in house; host or cells: E. coli Rosetta 2(DE3) pLysS, pMALc5x vector

in vitro [4] = assay: in vitro
EV-A71 Δ2C^116-329 [5] = target: T1, EV-A71 Δ2C^116-329; format: binding; conditions: 0.02 μM to 200 μM compound
[6] = system: Eastern equine encephalitis virus; format: cell-based
West Nile virus = assay: NIAID cytopathic effect assay, West Nile virus; format: cell-based
[7] = system: poliovirus Mahoney strain; assay: microbe, parasite or virus in culture; format: cell-based; conditions: Enterovirus C, Vero, read-out: IC50 for virus induced CPE inhibition
PV-1 = format: cell-based, Poliovirus
EV-A71 = assay: CPE inhibition assay (Cell Titer Glo) against EV-A71 in Vero cells; format: cell-based, Enterovirus A71; conditions: for IC50: Enterovirus A, EVA71, EV-A71, Vero cells
EV-71 [8] = assay: NIAID Antiviral Program for Pandemics primary assay (CPE/Tox), EV-71; conditions: Enterovirus A
[9] = as above; conditions: CC50 µM, primary assay, EV-71
human echovirus-11 = assay: NIAID cytopathic effect assay, human echovirus-11; format: cell-based
in vitro [10] = conditions: African green monkey
[11] = NIAID Antiviral Program for Pandemics primary assay (CPE/Tox), EV-68; conditions: CC50 µM, primary assay, EV-68
EV-68 [12] = assay: as above; conditions: Enterovirus D
EV-71 [13] = assay: NIAID secondary assay, Neutral Red (CPE/Tox), EV-71; conditions: Enterovirus A, EV71, read-out: EC50 μM
[14] = as above
[15] = system: Middle East Respiratory Syndrome; format: cell-based
influenza A (H1N1) = assay: NIAID cytopathic effect assay, influenza A (H1N1); format: cell-based
human echovirus-30 = assay: NIAID cytopathic effect assay, human echovirus-30; format: cell-based
EV-71 [16] = assay: microbe, parasite or virus in culture; conditions: Enterovirus A, EV71, read-out: EC90 μM
CV-B3 = assay: NIAID cytopathic effect assay, CV-B3; format: cell-based, Coxsackievirus B3
[17] = system: coxsackievirus-B3 (CV-B3); assay: CPE inhibition assay against CV-B3 in HeLa cells; format: cell-based
EV-A71 replicon = EV-A71 replicon assay in HeLa cells; conditions: 1, 5 or 25 μM, 14 hours post transfection
[18] = NIAID secondary assay, Neutral Red (CPE/Tox), EV-68
EV-68 [19] = assay: as above; conditions: Enterovirus D, EV68, read-out: EC50 μM
EV-D68 = assay: CPE inhibition assay against EV-D68 in Vero cells; format: cell-based; conditions: Enterovirus D, EVD68, read-out: IC50 for virus induced CPE inhibition

T1 sequence (Q66478 1227-1440, stated change not applied): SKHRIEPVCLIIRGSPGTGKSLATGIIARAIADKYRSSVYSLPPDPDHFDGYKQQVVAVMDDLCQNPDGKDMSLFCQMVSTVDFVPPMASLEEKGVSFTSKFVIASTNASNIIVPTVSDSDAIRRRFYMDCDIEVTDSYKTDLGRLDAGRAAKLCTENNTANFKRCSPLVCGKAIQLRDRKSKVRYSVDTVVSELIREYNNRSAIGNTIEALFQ

Q: Which CC50 [1] does the source give for `Cc1ccc2[nH]c(-c3ccc(NC(=O)c4cccs4)cc3)nc2c1` [Compound 36, N-[4-(5-methyl-1H-benzimidazol-2-yl)phenyl]-2-thiophenecarboxamide] here?
A: The CC50 was 9.4 µM.

Q: What about the EC90 (EV-68 [2]) of the same compound?
A: Its EC90 is 0.59 µM.

Q: What about the IC50 (EV-A71 Δ2C^116-329 [3]) of the same compound?
A: Its IC50 is 23.4 µM.

Q: What about the “dose dependence of inhibition of the ATPase function of Δ2C^116-329” value (EV-A71 Δ2C^116-329 [3]; dose response) of the same compound?
A: The value was “clear dose-dependent response”.

Q: What about the CC50 (in vitro [4]) of the same compound?
A: The CC50 was 27 µM.

Q: What about the “shift in melting temperature (Tm) of Δ2C^116-329” value (EV-A71 Δ2C^116-329 [5]) of the same compound?
A: Its value is “dose-dependent increase in the Tm”.

Q: And the “activity against Eastern equine encephalitis virus” value [6]?
A: The value was “no activity”.

Q: What about the “activity against West Nile virus” value (West Nile virus) of the same compound?
A: The value was “no activity”.

Q: What about the IC50 [7] of the same compound?
A: Its IC50 is 1.7 µM.

Q: And the “activity against PV-1” value (PV-1)?
A: Its value is “no activity”.

Q: And the “Selectivity Index” value (EV-A71)?
A: Its value is 29.59.

Q: And the selectivity index (EV-A71)?
A: Its selectivity index is 29.6.

Q: And the IC50 (EV-A71; read-out: IC50 for inhibition of virus-induced CPE)?
A: The IC50 was 2.66 µM.

Q: And the IC50 (EV-A71; Table 8, virus-induced CPE, read-out: IC50)?
A: Its IC50 is 2.66 µM.

Q: And the EC50 (EV-71 [8]; EV71, read-out: EC50 μM, primary assay, EV-71, Neutral Red (CPE/Tox))?
A: Its EC50 is 4.7 µM.

Q: And the EC50 (EV-71 [8]; EV71, read-out: EC50 μM, primary assay, EV-71, Visual (CPE/Tox))?
A: Its EC50 is greater than 32 µM.

Q: And the EC50 (EV-71 [8]; EV71|EVA71, read-out: EC50 against EV-A71, text, primary cytopathic effect assay)?
A: Its EC50 is 4.2 µM.

Q: What about the CC50 ([9]; Neutral Red (CPE/Tox)) of the same compound?
A: Its CC50 is 42 µM.

Q: And the CC50 ([9]; Visual (CPE/Tox))?
A: Its CC50 is 32 µM.

Q: And the “activity against human echovirus-11” value (human echovirus-11)?
A: Its value is “no activity”.

Q: What about the CC50 at 3 days (in vitro [10]; CC50) of the same compound?
A: The CC50 at 3 days was 78.7 µM.

Q: And the CC50 at 3 days (in vitro [10]; CC50 (μM))?
A: Its CC50 at 3 days is 78.7 µM.

Q: What about the CC50 ([11]; Neutral Red (CPE/Tox)) of the same compound?
A: The CC50 was 9 µM.

Q: What about the CC50 ([11]; Visual (CPE/Tox)) of the same compound?
A: The CC50 was 24 µM.

Q: And the EC50 (EV-68 [12]; EV68, read-out: EC50 μM, primary assay, EV-68, Neutral Red (CPE/Tox))?
A: Its EC50 is 0.39 µM.

Q: What about the EC50 (EV-68 [12]; EV68, read-out: EC50 μM, primary assay, EV-68, Visual (CPE/Tox)) of the same compound?
A: The EC50 was 0.52 µM.

Q: What about the EC50 (EV-68 [12]; EV68|EVD68, read-out: EC50 against EV-D68, text, primary cytopathic effect assay) of the same compound?
A: Its EC50 is 0.39 to 0.52 µM.

Q: And the EC50 (EV-71 [13])?
A: Its EC50 is 1.7 µM.

Q: And the CC50 [14]?
A: Its CC50 is 25 µM.

Q: And the “activity against Middle East Respiratory Syndrome” value [15]?
A: Its value is “no activity”.

Q: What about the “activity against influenza A (H1N1)” value (influenza A (H1N1)) of the same compound?
A: Its value is “no activity”.

Q: And the “activity against human echovirus-30” value (human echovirus-30)?
A: The value was “no activity”.

Q: What about the EC90 (EV-71 [16]) of the same compound?
A: Its EC90 is 3.2 µM.

Q: And the “activity against CV-B3” value (CV-B3)?
A: Its value is “no activity”.

Q: And the “inhibition of CV-B3” value [17]?
A: The value was “did not inhibit; also recorded: not active”.

Q: And the “number of reporter positive cells compared with the untreated control” value (EV-A71 replicon)?
A: The value was “no statistically significant difference”.

Q: What about the CC50 [18] of the same compound?
A: Its CC50 is 3.5 µM.

Q: And the EC50 (EV-68 [19])?
A: The EC50 was 0.52 µM.

Q: And the IC50 (EV-D68)?
A: The IC50 was 0.85 µM.
